Assay [1] deals with SW1990 cells. In words: RNA-seq of GSK-LSD1-treated SW1990 cells. The format is cell-based, Human. Conditions: fold change > 1.5, p < 0.05, Figure 4A. An excerpt:
Total RNA was isolated from cells using RNAiso plus (Takara). The quantity and integrity of RNA were separately evaluated using the K5500 (Beijing Kaiao, China) and the Agilent 2200 TapeStation (Agilent Technologies, USA). Briefly, the mRNA was enriched by OligodT NEBNext Poly(A) mRNA Magnetic Isolation Module (NEB, USA), and then fragmented into ≈200 bp. Subsequently, the RNA fragments were subjected to first and second strand cDNA synthesis, followed by adaptor ligation and enrichment according to instructions of NEBNext Ultra RNA Library Prep Kit for Illumina. The purified library products were evaluated by the Agilent 2200 TapeStation and Qubit (Thermo Fisher Scientific, USA). The libraries were sequenced by Illumina (Illumina, USA) with paired‐end 150 bp (Ribobio, China). The clean reads were acquired after discarding low‐quality reads or those containing adapter and ploy‐N. HISAT2 was employed to calibrate clean reads to human reference genome hg38 with default parameters. HTSeq was used to convert aligned short reads into read counts for each gene model. Differential gene expression was assessed by DESeq2 using read counts as input.^[ [62] ^] The Benjamini–Hochberg multiple test correction method was employed. […] RNA‐seq data sets were available (GEO accession number GSE237363).

Assay [2] relates to H3K4me1. In words: IHC of H3K4me1 in PDX tumors. The format is in vivo, Human (xenograft in immunodeficient nude mice). Conditions: vs control, Figure 5O. On the procedure:
PDAC and tumor adjacent tissues were obtained from the Second Affiliated Hospital of Nanjing Medical University. Ninety pairs of ductal adenocarcinoma and adjacent normal pancreatic tissue sections (HPanA180Su03) were obtained from Shanghai Outdo Biotech (National Human Genetic Resources Sharing Service Platform with code No. XT20‐021, Shanghai, China), under the approval by the Ethics Committee of Shanghai Outdo Biotech. IHC staining was performed on paraffin‐embedded sections of biopsies from ductal adenocarcinoma patients and controls according to standard protocols (CST). […] All pancreatic cancer tissue sections were examined by two experienced pathologists, and the EBF2, KMT2D or KLLN stained in the tissue was scored independently using the H‐score system by two pathologists blinded to the clinical data. […] For the Pearson correlation scatter plot of molecules in ductal adenocarcinoma, the H score was calculated by adding the multiplication product of the different staining intensities in category A (0–3) with the percentage of positive cells, i.e., H score (0–300 scale) = 3 × (% at 3+) + 2 × (% at 2+) + 1 × (% at 1+). […] The between‐group difference in the overall survival was evaluated by the log‐rank test. The correlation between EBF2, KMT2D, and KLLN expression in ductal adenocarcinoma was assessed via Pearson correlation analysis. […]
For orientation: Xenograft models place foreign cells or tissue in a host animal.

The test system of assay [3] is KDM1A/LSD1. As to conditions: cited from earlier work. An excerpt:
Next, we sought to elucidate the roles of KMT2D‐ and EBF2‐regulated H3K4me1 through profiling the gene transcription in PDAC cells with H3K4me1 activation by GSK‐LSD1 or EBF2 overexpression (EBF2‐OE). […] These differentially expressed genes (DEGs) were overlapped genes between EBF2‐OE and GSK‐LSD1‐treated SW1990 cells. A ...

Assay [4] deals with H3K4me1. In words: Western blot and IHC of metastatic foci from treated mice, H3K4me1. The format is in vivo, Human (xenograft in BALB/c nude mice). As to conditions: control vs GSK-LSD1-treated lung metastasis tissues, Figure 5L,M. In general terms: In western blotting, separated proteins are transferred to a membrane and probed.
The subject of assay [5] is SW1990 cells. The assay can be described thus: Colony-formation and CCK-8 proliferation, SW1990. The format is cell-based, Human. Conditions: vs Vehicle, p < 0.01, Figure 5F,G. On the procedure: (§1) Cell proliferation was determined by Cell Counting Kit‐8 (CCK‐8, Yeasen) and EdU Cell Proliferation Assay kit (Ribobio, Guangzhou, China). Colony formation was observed by staining with 0.1% crystal violet (Sangon Biotechnologies Inc., Shanghai, China). Cell migration and invasion were assessed using […] pore Transwell chambers with (for invasion assay) or without Matrigel (for migration assay). For migration assay, 5 × 10^4 SW1990 or 3 × 10^4 PANC‐1 cells were seeded into the upper chamber of the Transwell apparatus (Corning, USA) in serum‐free medium, and the medium supplemented with 10% FBS was added to the bottom chamber. For invasion assay, 10 × 10^4 SW1990 or 6 × 10^4 PANC‐1 cells were seeded into the upper Corning BioCoat Matrigel invasion chamber. After 24 h, the cells on the upper surface that had not passed through the polycarbonate filter were removed using a moistened cotton swab; the cells having migrated to the lower membrane surface were fixed in 100% methanol for 10 min, stained with 0.4% crystal violet for 15 min, and counted under a microscope (Nikon, Japan) at ×100 magnification. The cells were manually counted using Image J software. Three independent experiments were performed.

In assay [6] the test system is PANC‐1 cells. The assay can be described thus: Colony-formation and CCK-8 proliferation, PANC-1. The format is cell-based, Human. Conditions: vs Vehicle, p < 0.01, Figure S4E,F. The procedure:
as §1

The test system of assay [7] is KLLN. The assay can be described thus: qPCR of KLLN mRNA in SW1990 cells. The format is cell-based, Human. As to conditions: vs negative control, p < 0.01, Student's t-test, concentration not given, Figure 4E. The procedure:
Total RNA was extracted from cultured cells using RNAiso plus (Takara, Japan). cDNA was synthesized from every 1 µg of total RNA in reverse transcription reactions with Hifair III 1st Strand cDNA Synthesis SuperMix for qPCR (Cat No. 11 141; Yeasen, Shanghai, China). qPCR was performed with Hieff qPCR SYBR Green Master Mix (Yeasen) using a Roche LightCycler 96 Real‐Time PCR System. Cycling conditions were set at 94 °C for 15 s, 60 °C for 1 min, and 72 °C for 30 s. Each reaction was performed in triplicate. The primer sequences were as follows: KMT2D‐F: 5′‐[…]‐3′; KMT2D‐R: 5′‐[…]‐3′; EBF2‐F: 5′‐[…]‐3′; EBF2‐R: 5′‐[…]‐3′; KLLN‐F: 5′‐[…]‐3’; KLLN‐R: 5′‐[…]‐3′. β‐actin‐F: 5′‐[…]‐3′; β‐actin‐R: 5′‐[…]‐3′.
For orientation: Quantitative PCR measures a nucleic acid by following its amplification.

`c1ccc([C@@H]2C[C@H]2NC2CCNCC2)cc1` [GSK‐LSD1]: the “upregulated genes overlapping between EBF2-OE and GSK-LSD1-treated cells” value in assay [1] is 17. Besides, the “H3K4me1 expression in PDX tumors” value in assay [2] is listed as “significantly upregulated”. Besides, the “H3K4me1 level via blocking of KDM1A/LSD1” value in assay [3] is “can increase H3K4me1 level”. The “inhibition of KDM1A/LSD1, in words” value in assay [3] was “selective inhibitor of KDM1A/LSD1”. For the same compound, the “H3K4me1 in metastatic foci” value in assay [4] is listed as “upregulation”. For the same compound, the proliferation entry in assay [5] and in assay [6] was “significantly inhibited” in each case. Besides, the “KLLN mRNA level” value in assay [7] is “significant upregulation”.

The values are drawn from paper PMC10787067, “EBF2 Links KMT2D‐Mediated H3K4me1 to Suppress Pancreatic Cancer Progression via Upregulating KLLN” (Advanced Science, 2023).
